Consider six compounds from PMC12475274, “Harnessing indole scaffolds to identify small-molecule IRE1α inhibitors modulating XBP1 mRNA splicing” (Nature Communications, 2025).

Molecules are shown by their SMILES. Where “and” joins values, the source holds several entries; their conditions need not be identical. Equal entries are not always repeated. Entries after “also recorded” stand apart in the source; their conditions may differ. Where two headings read alike, the source gives them in different places.

One assay addresses T1, p-IRE1α (Homo sapiens, UniProt O75460).
T1 construct: Human IRE1α kinase and RNase domain (residues 547–977) was subcloned into pLIB plasmid; His tag (with TEV cleavage site) (N, cleaved yes); made in house; host or cells: Sf9 insect cells, baculovirus (Bac-to-Bac)
The assay can be described thus: Gel-based RNA-cleavage assay. It is filed as biochemical. As to the method:
Purified p-IRE1α with a final concentration of 10 nM was preincubated with the indicated compounds for 30 min at room temperature, then 50 nM FAM and BHQ-labeled XBP1 substrate were added to the reaction. The reaction was further incubated for 45 min at room temperature and then mixed with 6× TBE loading dye (45% H2O, 40 % glycerol, 15% 10× TBE, 0.1% bromphenol blue). 5 μL sample was loaded to 15% pre-runed urea-PAGE, and the gel was run in pre-warmed (~60 °C) 1× TBE buffer buffer in the dark. The gel fluorescence was detected and imaged using the ChemiDoc MP imaging system (Bio-Rad).

Another assay addresses IRE1α (ERN1) (Homo sapiens, UniProt O75460). The assay can be described thus: LanthaScreen Eu kinase binding assay, IRE1α. The settings on record: for inhibition at 5.56 µM: Conc. 5560 nM; for inhibition at 5.56 µM / inhibition at 16.7 µM / inhibition at 50 µM: duplicates; for inhibition at 16.7 µM: Conc. 16700 nM; for inhibition at 50 µM: Conc. 50000 nM. The method, then: LanthaScreen^TM Eu kinase binding assays were conducted by SelectScreen Kinase Profiling Services (Thermo Fisher) using Alexa Fluor conjugated kinase tracer, tagged kinase protein, and Eu-labeled anti-tag antibody. The binding of the tracer to the kinase will form the tracer-kinase complex, resulting in a high FRET signal with the Eu-labeled anti-tag antibody. Displacement of the tracer by a kinase inhibitor led to a decreased FRET signal. […] Buffer A containing 50 mM HEPES pH 7.5, 0.01% BRIJ-35, 10 mM MgCl2, and 1 mM EGTA was used.
Kinase profiling was conducted by the SelectScreen Kinase Profiling Services (Thermo Fisher), using Z′-LYTE, Adapta, or LanthaScreen Eu Kinase Binding Assay for different kinases. The kinome phylogenetic tree was generated using the KinMap web portal.

Assay [1] concerns the target T2, p-IRE1α dimerization and oligomerization (Homo sapiens, UniProt O75460).
T2 construct: Human IRE1α kinase and RNase domain (residues 547–977) was subcloned into pLIB plasmid; His tag (with TEV cleavage site) (N, cleaved yes); made in house; host or cells: Sf9 insect cells, baculovirus (Bac-to-Bac)
The assay can be described thus: DSS cross-linking assay with mass photometry. The settings on record: 100 μM compound, DSS crosslinking. The method, then: Phosphorylated IRE1α (p-IRE1α) and compounds were incubated 30 min at room temperature, with a final concentration of 2 μM p-IRE1α and 100 μM of the indicated compound, in a buffer containing 20 mM HEPES, pH 7.5, 50 mM KOAc, 1 mM MgOAc2, 1 mM DTT, 0.05% v/v TritonX-100, in a total reaction volume of 20 μL. After incubation, DSS (disuccinimidyl suberate, Thermo Fisher, A39267) was added to the reaction at a final concentration of 250 μM to induce crosslinking at room temperature for 1 h. Tris (pH 7.5) was added to a final concentration of 50 mM to stop the reaction. Samples were further measured with a mass photometry instrument (Refeyn Ltd). The PBS buffer was used for the mass photometry measurement. The instrument was calibrated with BSA and TG protein mixture in PBS. Samples were diluted to a protein concentration of 100 nM with buffer before measurement. Then, 18 μL PBS buffer was added to the center of the gasket on the coverslips to check and find the focus. Afterward, 2 μL of the diluted sample was added, mixed, and measured. Data were analyzed using Discover MP software, for each sample, results from 3 individual measurements were merged.

Assay [2] deals with IRE1α protein in A549 cells. Kind of assay: Western blot of IRE1α protein level, A549. Type of assay: cell-based, human. The method, then:
(§1) A549 cells and MDA-MB-231 Cells were harvested and seeded into 6-well plates with a density of 8 × 10^5 cells per well and cultured overnight. […]. Protein concentrations were measured using a BCA protein assay kit (Thermo Scientific, 23227) and all samples were diluted to the same protein concentration. Each sample with 40 μg of total protein was loaded onto a 4–15% MP stain-free gel (Bio-Rad, 4568085) and separated in tris-glycine-SDS running buffer. The proteins were transferred onto a 0.45 μm PVDF membrane (Bio-Rad, 1704274) using the Trans-Blot Turbo Transfer System with the preprogrammed standard SD protocol (up to 1.0 A; 25 V; 30 min). Membranes were blocked with 5% skim milk (Roth, T145.2) in PBST buffer, then incubated with primary antibody IRE1α (Cell Signaling Technology, #3294 s, 1:1000), XBP1s (Cell Signaling Technology, #12782 s, 1:1000) GAPDH (Proteintech, 10494-1-AP, 1:6000) overnight at 4 °C with shaking. After incubation, membranes were washed with PBST and incubated with the Goat Anti-Rabbit (Proteintech, SA00001-2, 1:6000) antibody at room temperature for 1 h. After washing with PBST, the membranes were visualized using Amersham ECL Prime Western Blotting Detection Kit (Cytiva, RPN2232) and imaged with a ChemiDoc MP imaging system (Bio-Rad).
For orientation: Immunoblotting shows a protein as a band on a membrane.

Assay [3] relates to IRE1α protein in MDA-MB-231 cells. Kind of assay: Western blot of IRE1α protein level, MDA-MB-231. It is filed as cell-based, human. As to the method: as §1
Assay [4] has as its system XBP1 mRNA splicing in A549 cells. The assay can be described thus: RT-qPCR of ER stress-induced XBP1 mRNA splicing, A549. Type of assay: cell-based, human. The settings on record: for Relative XBP1s/Actin: Fig. 7a, 0.5μg/mL Tm, individual replicates. The method, then: A549 cells, HCT 116 cells, and HT-29 cells were collected and seeded in 6-well plates at a density of 5 × 10^5 cells per well and cultured overnight to attach, then treated with compound or DMSO for 2 h, then 0.5 μg/mL final concentration of tunicamycin (Tm, MP Biomedi, 0215002805) were added to induce the ER stress for 2 h. After treatment, total RNA was purified using an RNeasy mini kit (Qiagen, 74106). 500 ng of total RNA was used for reverse transcription using the High-Capacity cDNA Reverse Transcription Kits (Thermo Fisher, 4368814). cDNA was diluted 1: 5 using RNase-free water, and 1 μL CDNA was used for each qPCR reaction. The qPCR was performed using PowerUp™ SYBR™ Green Master Mix (Thermo Fisher, A25742) with 10 µL reaction volume using Bio-Rad CFX96 Real-Time PCR Detection System following the standard cycling mode (primer Tm ≥ 60 °C) on the manufacturer’s protocol. Data was analyzed using the 2^- ΔΔCt method. The primers used are listed in Supplementary Table S3. The inhibition % was calculated by using the equation: inhibition% = 100× (normalized Tm control - normalized of the sample)/(normalized Tm control - normalized DMSO control). Tm control: Cells treated with tunicamycin; DMSO control: Cells treated with DMSO only.
(Quantitative PCR measures a nucleic acid by following its amplification.)

[5] abbreviates: read-out: IRE1a Kinase Displacement(%).
Where [6] appears, read: IRE1α kinase domain, read-out: IC50 (kinase binding), LanthaScreen Eu kinase binding.

T1 sequence (O75460 547-977): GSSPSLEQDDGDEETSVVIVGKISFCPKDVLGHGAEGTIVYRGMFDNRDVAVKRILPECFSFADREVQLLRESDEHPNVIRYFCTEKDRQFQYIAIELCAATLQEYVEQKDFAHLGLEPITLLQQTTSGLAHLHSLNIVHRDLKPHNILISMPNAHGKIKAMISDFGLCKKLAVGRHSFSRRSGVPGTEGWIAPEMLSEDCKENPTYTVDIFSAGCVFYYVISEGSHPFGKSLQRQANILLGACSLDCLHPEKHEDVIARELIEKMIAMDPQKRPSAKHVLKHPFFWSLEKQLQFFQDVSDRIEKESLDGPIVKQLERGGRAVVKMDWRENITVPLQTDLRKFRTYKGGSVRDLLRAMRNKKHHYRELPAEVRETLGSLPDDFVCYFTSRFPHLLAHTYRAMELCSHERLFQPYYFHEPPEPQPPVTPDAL
T2 sequence (O75460 547-977): as above
IRE1α (ERN1), sequence (O75460 19-977): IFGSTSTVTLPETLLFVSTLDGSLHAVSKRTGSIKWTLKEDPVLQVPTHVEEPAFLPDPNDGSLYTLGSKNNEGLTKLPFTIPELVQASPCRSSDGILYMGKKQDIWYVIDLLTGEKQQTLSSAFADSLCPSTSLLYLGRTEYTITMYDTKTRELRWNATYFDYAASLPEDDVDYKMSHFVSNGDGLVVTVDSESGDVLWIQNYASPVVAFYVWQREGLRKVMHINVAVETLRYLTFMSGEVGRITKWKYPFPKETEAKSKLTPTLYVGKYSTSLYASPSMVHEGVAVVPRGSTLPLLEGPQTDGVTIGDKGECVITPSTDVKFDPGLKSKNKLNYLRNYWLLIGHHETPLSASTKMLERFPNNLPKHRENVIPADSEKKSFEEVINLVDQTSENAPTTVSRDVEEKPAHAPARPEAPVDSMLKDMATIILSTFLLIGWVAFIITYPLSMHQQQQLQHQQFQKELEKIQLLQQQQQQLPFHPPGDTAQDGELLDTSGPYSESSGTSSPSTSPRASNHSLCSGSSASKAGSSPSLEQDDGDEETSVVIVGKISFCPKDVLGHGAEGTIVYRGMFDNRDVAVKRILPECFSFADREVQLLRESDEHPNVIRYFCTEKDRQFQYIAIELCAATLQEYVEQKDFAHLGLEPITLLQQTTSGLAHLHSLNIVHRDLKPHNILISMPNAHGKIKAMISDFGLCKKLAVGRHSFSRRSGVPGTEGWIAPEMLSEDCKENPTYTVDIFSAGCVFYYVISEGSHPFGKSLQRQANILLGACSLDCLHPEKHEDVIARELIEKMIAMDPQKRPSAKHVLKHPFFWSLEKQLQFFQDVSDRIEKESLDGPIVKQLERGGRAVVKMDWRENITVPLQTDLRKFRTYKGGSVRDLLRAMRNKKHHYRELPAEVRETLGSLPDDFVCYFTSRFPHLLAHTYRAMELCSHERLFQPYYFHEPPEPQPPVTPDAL

Consider `COc1ccc2c(c1)c(CCC(=O)O)c(C)n2C(=O)c1ccccc1` [IA64], for which the “inhibition of p-IRE1α RNase activity in gel-based cleavage assay” value (“inhibition of p-IRE1α RNase activity” for short) against p-IRE1α is recorded as “inhibited p-IRE1α activity; also recorded: concentration-dependently inhibited”. Moreover, at IRE1α (ERN1) (setting [5]), the inhibition at 5.56 µM is 104%, the inhibition at 16.7 µM came out at 98% and the inhibition at 50 µM was determined as 109%. For the same compound, the IC50 at IRE1α (ERN1) (setting [6]) was found to be 1.1 µM.
`COc1ccc2c(c1)c(CCC(=O)O)c(C)n2C(=O)c1ccc(Cl)cc1` [IA01]: the “inhibition of p-IRE1α RNase activity” value against p-IRE1α is listed as “concentration-dependently inhibited”. At IRE1α (ERN1) (setting [5]), the inhibition at 5.56 µM came to 50%, the inhibition at 16.7 µM turned out to be 63% and the inhibition at 50 µM was 70%. In addition, on IRE1α (ERN1) (setting [6]), the IC50 was 2.47 µM.
With `Cc1ccc2c(NS(=O)(=O)c3ccccc3Cl)cccc2c1Oc1ncccc1-c1ccnc(N[C@H]2CCCNC2)n1` [KIRA8], the “effect on p-IRE1α dimerization/oligomerization” value in assay [1] is “interfere with the dimerization; also recorded: inhibited dimerization”. The “effect on IRE1α protein level” value in assay [2] and in assay [3] was “did not affect” in each case.
In the case of `Cc1c(CCC(=O)O)c2cc(Br)ccc2n1C(=O)c1ccccc1` [IA107], the “inhibition of p-IRE1α RNase activity” value against p-IRE1α was “concentration-dependently inhibited”. Moreover, the “inhibition of ER stress-induced XBP1 mRNA splicing” value in assay [4] (A549 cells, 2 h pre-treatment, 2 h tunicamycin) is on record as “concentration-dependently inhibited”. Besides, the “Relative XBP1s/Actin” value in assay [4] (5 μM) is 3.514 and 3.6054 and 3.452 and 3.1438; in assay [4] (10 μM), 3.066 and 2.696 and 2.897 and 2.792; in assay [4] (25 μM) it was 2.48 and 2.329 and 2.338 and 2.263; in assay [4] (50 μM), 1.745 and 1.521 and 1.514 and 1.455. The “effect on p-IRE1α dimerization/oligomerization” value in assay [1] was “did not inhibit the dimerization and oligomerization; also recorded: did not affect the dimerization and oligomerization”. Further, on IRE1α (ERN1) (setting [5]), the inhibition at 5.56 µM was 88%. Besides, the inhibition at 16.7 µM on IRE1α (ERN1) (setting [5]) is 94%. In addition, the inhibition at 50 µM on IRE1α (ERN1) (setting [5]) stood at 96%. Moreover, the IC50 on IRE1α (ERN1) (setting [6]) was determined as 0.768 µM. Besides, the inhibition at 5 µM at IRE1α (ERN1) (kinase profiling, ERN1, LanthaScreen Binding, IA107 at 5 μM) stood at 91%.
Turning to `CCOC(=O)CCc1c(C)n(C(=O)c2ccccc2)c2ccc(Br)cc12` [IAPD1], the IC50 is 0.18 µM in assay [4] (Homo sapiens, A549 cells, tunicamycin, read-out: cellular IC50, ER stress-induced XBP1 mRNA splicing) and > 50 µM at IRE1α (ERN1) (read-out: IC50 (Kinase), LanthaScreen kinase binding/displacement). In addition, in assay [4] (prodrug versus IA107), the “improvement of the cellular activity in inhibiting XBP1 mRNA splicing” value was determined as 50 fold. The “effect on IRE1α protein level” value in assay [2] and in assay [3] was “did not affect” in each case. In addition, the “binding to IRE1α kinase domain in LanthaScreen assay” value was “did not show any detectable activity” at IRE1α (ERN1) and “did not show any detectable” on IRE1α (ERN1) (listed as IADP1). Moreover, on IRE1α (ERN1) (0.0686 μM, read-out: IRE1a Kinase Displacement(%)), the inhibition at 0.0686 µM was 11.5%.
As to `CCOC(=O)Nc1cccc2c(Oc3ncccc3-c3ccnc(N[C@H]4CCCNC4)n3)c(C)ccc12` [Compound G1749, reference compound], in assay [1], the “effect on p-IRE1α dimerization/oligomerization” value was “inhibited the dimerization; also recorded: interfere with the dimerization”. Further, the “effect on IRE1α protein level” value in assay [2] and in assay [3] was “did not affect” in each case.
